≈ marks a conversion by molar mass, not a printed value.
How the values were obtained:
Assay type in all cases: cell-based
[1] = system: MDA-MB-231 cell line (breast cancer); experiment: MTT cell viability assay, MDA-MB-231; settings: Homo sapiens; MDA-MB-231, MTT, 48 hours; read-out: half maximal inhibitory concentration (IC50), MDA-MB-231
Description: (§1) Cell proliferation of A549 cell line (lung cancer), CT26 cell line (colon cancer), DU145 cell line (prostate cancer), HepG2 cell line (liver cancer), MDCK cell line (kidney from canine), PC3 cell line (prostate cancer), MDA-MB-231 cell line (breast cancer) and MCF-7 cell line (breast cancer) was assessed by MTT cell viability assay.
(§2) Above cell lines were cultured in determined medium for 24 hours. Proliferative cells were washed with PBS solution, treated with trypsin-EDTA (1×), centrifuged at 1,200 rpm for 5 min, precipitated the cells and discarded supernatant. The cells were resuspended with 10 ml of fresh medium, and then loaded to 96-well plate. While the assay initiated, 0.01˜200 μg/ml of Antrodia camphorata extract was added in each well, and the plate was incubated for 48 hours, at 37° C., 5% CO2. Each wall was added with 2.5 mg/ml MTT reagent in the dark. After 4 hours of reaction, 100 μl lysis buffer were added to each wall to terminate the reaction. […] The experiment data was represented by means±SD. All data was statistically analyzed by paired-t test, and a P-value less than 0.05 was considered significant.

[2] = system: DU145 cell line (prostate cancer); experiment: MTT cell viability assay, DU145; settings: Homo sapiens; DU-145, MTT, 48 hours; read-out: half maximal inhibitory concentration (IC50), DU-145
Description: as §1, §2

[3] = system: CT26 cell line (colon cancer); experiment: MTT cell viability assay, CT26; settings: Mus musculus, 48 hours, read-out: half maximal inhibitory concentration (IC50), CT26
Description: as §1, §2

[4] = system: A549 cell line (lung cancer); experiment: MTT cell viability assay, A549; settings: Homo sapiens, 48 hours, read-out: half maximal inhibitory concentration (IC50), A549
Description: as §1, §2

various tumor cells = experiment: MTT cell viability assay, statements over all cell lines; settings: for anti cancer activity, in words: summary of table 9
Description: as §1, §2
The symbols used in tables respectively represent: 0˜25% cell viability: +/−; 25˜50% cell viability: +; 50˜75% cell viability: ++, 75˜100% cell viability: +++, >100% cell viability: ++++. […] In this experiment, when the drug concentration was diluted to […], DMSO concentration was 0.5%.
Accordingly, above extracts can be used for treating cancers, such as lung cancer, colon cancer, prostate cancer, liver cancer and breast cancer, and the effective compounds contained in those extracts also can be purified.
The half maximal inhibitory concentration (IC50) is a measure of the effectiveness of a compound in inhibiting biological or biochemical function. This quantitative measure indicates how much of a particular drug or other substance (inhibitor) is needed to inhibit a given biological process (e.g. cell apoptosis-inducing activity of a compound) by half. […]

[5] = system: MDCK cell line (kidney from canine); experiment: MTT cell viability assay, MDCK; settings: Canis lupus familiaris, 48 hours, read-out: half maximal inhibitory concentration (IC50), MDCK
Description: as §1, §2

[6] = system: HepG2 cell line (liver cancer); experiment: MTT cell viability assay, HepG2; settings: Homo sapiens, 48 hours, read-out: half maximal inhibitory concentration (IC50), HepG2
Description: as §1, §2

[7] = system: MCF-7 cell line (breast cancer); experiment: MTT cell viability assay, MCF-7; settings: Homo sapiens, MCF7; MCF-7, MTT, 48 hours; read-out: half maximal inhibitory concentration (IC50), MCF-7
Description: as §1, §2

[8] = system: PC3 cell line (prostate cancer); experiment: MTT cell viability assay, PC3; settings: Homo sapiens, PC-3, 48 hours, read-out: half maximal inhibitory concentration (IC50), PC3
Description: as §1, §2

SMILES | IC50 [1] [µg/mL] | IC50 [2] [µg/mL] | IC50 [3] [µg/mL] | IC50 [4] [µg/mL] | anti cancer activity, in words (various tumor cells) | IC50 [5] [µg/mL] | IC50 [6] [µg/mL] | IC50 [7] [µg/mL] | IC50 [8] [µg/mL] | IC50 value of the solvent (50% cell death) (various tumor cells; DMSO content of the diluted drug, cell line not stated) [%]
COC1=C(OC)[C@H](O)[C@H](C/C=C(\C)CC/C=C(\C)CC(O)C=C(C)C)[C@@H](C)C1=O (stereo partly shown) [Antrocamol LT1, 4-hydroxy-5-[9-hydroxy-3,7,11-trimethyldodeca-2,6,10-trienyl]-2,3-dimethoxy-6-methyl-cyclohex-2-enone] | 0.98 ± 0.05 (≈ 2.41 µM) | 0.057 ± 0.009 (≈ 0.14 µM) | 0.07 ± 0.006 (≈ 0.172 µM) | 0.093 ± 0.003 (≈ 0.229 µM) | predominant anti cancer activity | > 10 | 0.014 ± 0.001 (≈ 0.0344 µM) | 0.99 ± 0.08 (≈ 2.44 µM) | 0.057 ± 0.002 (≈ 0.14 µM) | –
COC1=C(OC)[C@H](OC(C)=O)[C@H](C/C=C(\C)CC/C=C(\C)CC(O)C=C(C)C)[C@@H](C)C1=O (stereo partly shown) [Antrocamol LT2, 4-acetoxy-5-[9-hydroxy-3,7,11-trimethyldodeca-2,6,10-trienyl]-2,3-dimethoxy-6-methyl-cyclohex-2-enone] | 1.03 ± 0.05 (≈ 2.3 µM) | 0.91 ± 0.08 (≈ 2.03 µM) | 0.8 ± 0.03 (≈ 1.78 µM) | 1.06 ± 0.22 (≈ 2.36 µM) | predominant anti cancer activity | > 10 | 0.59 ± 0.02 (≈ 1.32 µM) | 0.95 ± 0.11 (≈ 2.12 µM) | 0.69 ± 0.06 (≈ 1.54 µM) | –
C[S+](C)[O-] [DMSO] | – | – | – | – | – | – | – | – | – | 2.34
